Like-named read-outs stand apart in the source and are kept apart here.
Assays:
Assay in all cases: biochemical
Set-up in all cases: KINOMEscan scanMAX competition binding, DNA-tagged kinases, qPCR read-out, percent control at 300 nM
[1] = molecular target: T1, MEK5 (Homo sapiens, UniProt Q13163)
T1 construct: gene MAP2K5
T1 sequence (Q13163 1-448): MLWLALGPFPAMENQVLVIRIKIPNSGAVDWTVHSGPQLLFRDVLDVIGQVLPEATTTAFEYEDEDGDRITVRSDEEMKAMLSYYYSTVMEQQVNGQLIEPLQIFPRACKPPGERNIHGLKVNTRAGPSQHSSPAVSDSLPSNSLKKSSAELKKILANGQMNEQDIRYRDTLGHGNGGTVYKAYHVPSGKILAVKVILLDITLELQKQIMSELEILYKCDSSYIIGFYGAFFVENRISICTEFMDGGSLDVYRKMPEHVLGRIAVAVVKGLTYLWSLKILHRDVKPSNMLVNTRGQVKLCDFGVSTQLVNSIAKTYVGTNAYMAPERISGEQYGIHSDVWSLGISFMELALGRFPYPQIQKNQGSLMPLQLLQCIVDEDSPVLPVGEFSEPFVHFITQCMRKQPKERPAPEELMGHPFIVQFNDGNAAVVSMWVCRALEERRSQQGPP

[2] = molecular target: ROCK2 (Homo sapiens, UniProt O75116)
Chain of ROCK2 (O75116 whole entry): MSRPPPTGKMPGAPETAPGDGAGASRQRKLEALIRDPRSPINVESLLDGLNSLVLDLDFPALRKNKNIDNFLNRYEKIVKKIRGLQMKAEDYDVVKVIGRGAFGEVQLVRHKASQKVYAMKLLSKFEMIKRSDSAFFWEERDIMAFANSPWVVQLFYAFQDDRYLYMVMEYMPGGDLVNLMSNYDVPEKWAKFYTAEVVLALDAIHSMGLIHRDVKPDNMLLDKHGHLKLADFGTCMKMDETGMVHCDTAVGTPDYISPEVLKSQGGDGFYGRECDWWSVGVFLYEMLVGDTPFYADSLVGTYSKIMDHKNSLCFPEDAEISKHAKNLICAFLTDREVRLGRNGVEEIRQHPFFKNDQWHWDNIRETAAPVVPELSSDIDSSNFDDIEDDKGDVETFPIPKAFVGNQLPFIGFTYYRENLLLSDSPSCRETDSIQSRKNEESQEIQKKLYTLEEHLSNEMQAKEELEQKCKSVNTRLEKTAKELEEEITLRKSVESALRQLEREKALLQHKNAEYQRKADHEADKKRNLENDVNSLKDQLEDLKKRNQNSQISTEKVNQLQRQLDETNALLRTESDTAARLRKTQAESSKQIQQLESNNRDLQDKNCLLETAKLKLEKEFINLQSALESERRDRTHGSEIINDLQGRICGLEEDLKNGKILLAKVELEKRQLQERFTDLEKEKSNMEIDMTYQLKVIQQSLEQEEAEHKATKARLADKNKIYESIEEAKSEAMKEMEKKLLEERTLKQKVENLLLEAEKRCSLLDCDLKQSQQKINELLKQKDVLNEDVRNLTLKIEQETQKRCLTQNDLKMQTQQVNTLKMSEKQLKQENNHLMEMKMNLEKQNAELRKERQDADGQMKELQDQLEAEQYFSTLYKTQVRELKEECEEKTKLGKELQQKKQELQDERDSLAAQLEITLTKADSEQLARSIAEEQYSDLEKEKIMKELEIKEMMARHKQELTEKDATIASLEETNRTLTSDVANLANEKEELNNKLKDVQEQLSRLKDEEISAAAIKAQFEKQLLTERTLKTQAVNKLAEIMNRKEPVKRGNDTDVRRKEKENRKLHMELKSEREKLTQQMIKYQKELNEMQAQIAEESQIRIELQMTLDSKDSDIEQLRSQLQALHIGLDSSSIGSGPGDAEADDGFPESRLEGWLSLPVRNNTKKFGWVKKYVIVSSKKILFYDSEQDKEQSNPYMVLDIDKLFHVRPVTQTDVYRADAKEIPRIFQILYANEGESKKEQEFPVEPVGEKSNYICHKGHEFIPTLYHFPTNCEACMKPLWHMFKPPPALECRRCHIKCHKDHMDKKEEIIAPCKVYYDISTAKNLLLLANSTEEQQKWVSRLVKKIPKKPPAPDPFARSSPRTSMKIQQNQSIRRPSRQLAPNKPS

[3] = molecular target: T2, LZK (Homo sapiens, UniProt O43283)
T2 construct: gene MAP3K13
T2 sequence (O43283 1-966): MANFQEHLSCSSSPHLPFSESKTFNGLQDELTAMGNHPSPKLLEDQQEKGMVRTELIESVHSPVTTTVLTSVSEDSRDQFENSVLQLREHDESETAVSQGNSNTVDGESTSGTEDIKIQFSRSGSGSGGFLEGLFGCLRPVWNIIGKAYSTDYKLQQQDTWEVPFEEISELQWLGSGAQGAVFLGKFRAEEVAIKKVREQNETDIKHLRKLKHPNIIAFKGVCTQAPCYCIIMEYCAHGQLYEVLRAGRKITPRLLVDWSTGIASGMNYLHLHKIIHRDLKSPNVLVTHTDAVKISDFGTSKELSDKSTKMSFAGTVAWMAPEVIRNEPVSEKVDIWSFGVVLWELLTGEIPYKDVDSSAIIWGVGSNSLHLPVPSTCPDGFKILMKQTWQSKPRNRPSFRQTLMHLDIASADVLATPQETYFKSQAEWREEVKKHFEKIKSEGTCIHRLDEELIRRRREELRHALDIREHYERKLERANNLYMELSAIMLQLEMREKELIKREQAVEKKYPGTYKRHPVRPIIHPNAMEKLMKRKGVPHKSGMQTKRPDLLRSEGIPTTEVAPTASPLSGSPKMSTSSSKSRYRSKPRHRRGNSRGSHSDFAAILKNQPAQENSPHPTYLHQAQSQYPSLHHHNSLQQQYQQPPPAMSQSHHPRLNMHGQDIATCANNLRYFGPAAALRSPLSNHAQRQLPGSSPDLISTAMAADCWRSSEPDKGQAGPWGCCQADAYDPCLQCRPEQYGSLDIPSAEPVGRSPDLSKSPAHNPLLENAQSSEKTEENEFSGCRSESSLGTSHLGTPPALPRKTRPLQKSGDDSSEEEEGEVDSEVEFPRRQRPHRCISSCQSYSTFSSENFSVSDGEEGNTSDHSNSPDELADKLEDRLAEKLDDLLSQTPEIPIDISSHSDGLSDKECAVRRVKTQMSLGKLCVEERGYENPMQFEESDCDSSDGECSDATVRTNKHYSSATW

[4] = molecular target: T3, PFTAIRE2 (Homo sapiens, UniProt Q96Q40)
T3 construct: gene CDK15
T3 sequence (Q96Q40 whole entry): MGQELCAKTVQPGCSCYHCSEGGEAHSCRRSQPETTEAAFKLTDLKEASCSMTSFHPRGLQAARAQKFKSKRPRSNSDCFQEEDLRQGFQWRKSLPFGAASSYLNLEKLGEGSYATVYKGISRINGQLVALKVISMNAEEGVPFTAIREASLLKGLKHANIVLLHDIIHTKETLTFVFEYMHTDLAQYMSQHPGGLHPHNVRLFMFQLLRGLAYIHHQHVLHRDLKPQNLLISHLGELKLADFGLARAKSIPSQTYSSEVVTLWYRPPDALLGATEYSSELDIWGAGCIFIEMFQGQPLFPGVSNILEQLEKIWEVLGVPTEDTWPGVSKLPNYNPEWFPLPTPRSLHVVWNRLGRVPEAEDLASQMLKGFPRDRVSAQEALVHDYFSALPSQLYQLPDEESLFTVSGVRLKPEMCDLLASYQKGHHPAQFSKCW

[5] = molecular target: EGFR(L747-E749del, A750P) (Homo sapiens, UniProt P00533, A750P/DEL747-749)
Chain of EGFR(L747-E749del, A750P) (P00533 with tags, fused parts or gaps DEL747-749/A750P): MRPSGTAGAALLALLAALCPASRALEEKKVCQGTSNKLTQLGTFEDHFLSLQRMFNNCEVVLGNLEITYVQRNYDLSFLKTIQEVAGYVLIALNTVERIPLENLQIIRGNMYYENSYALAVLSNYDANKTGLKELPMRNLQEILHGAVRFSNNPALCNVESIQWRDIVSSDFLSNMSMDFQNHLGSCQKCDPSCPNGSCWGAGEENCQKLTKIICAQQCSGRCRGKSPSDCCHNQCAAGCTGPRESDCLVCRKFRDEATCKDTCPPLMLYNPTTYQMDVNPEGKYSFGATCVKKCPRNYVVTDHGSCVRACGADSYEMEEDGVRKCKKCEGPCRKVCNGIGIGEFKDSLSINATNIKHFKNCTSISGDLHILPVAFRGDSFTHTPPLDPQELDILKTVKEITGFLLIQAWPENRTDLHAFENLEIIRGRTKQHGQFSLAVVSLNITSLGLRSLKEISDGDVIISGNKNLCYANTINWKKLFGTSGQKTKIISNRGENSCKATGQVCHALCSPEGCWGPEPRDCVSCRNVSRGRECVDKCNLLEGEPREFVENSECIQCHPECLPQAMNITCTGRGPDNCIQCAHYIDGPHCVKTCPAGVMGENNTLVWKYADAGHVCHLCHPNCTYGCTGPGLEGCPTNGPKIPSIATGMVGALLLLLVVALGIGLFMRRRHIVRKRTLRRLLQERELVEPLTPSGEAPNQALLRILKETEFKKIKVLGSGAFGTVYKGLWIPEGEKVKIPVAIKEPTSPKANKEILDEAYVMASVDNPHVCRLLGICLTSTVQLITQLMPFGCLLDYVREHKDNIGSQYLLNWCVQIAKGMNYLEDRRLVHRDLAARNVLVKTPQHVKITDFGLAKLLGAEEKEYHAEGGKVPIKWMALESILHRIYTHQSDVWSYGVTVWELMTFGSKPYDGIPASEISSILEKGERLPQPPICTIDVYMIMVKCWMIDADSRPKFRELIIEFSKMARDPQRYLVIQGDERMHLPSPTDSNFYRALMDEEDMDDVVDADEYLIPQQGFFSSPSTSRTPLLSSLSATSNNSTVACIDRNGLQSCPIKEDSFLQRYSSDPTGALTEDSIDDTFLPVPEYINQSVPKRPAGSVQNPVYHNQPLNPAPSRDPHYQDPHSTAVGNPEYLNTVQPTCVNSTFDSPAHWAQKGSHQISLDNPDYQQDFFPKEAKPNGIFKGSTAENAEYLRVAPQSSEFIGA

[6] = molecular target: T4, ABL1(F317I)-nonphosphorylated (Homo sapiens, UniProt P00519, F317I)
T4 construct: nonphosphorylated
T4 sequence (P00519 whole entry F317I): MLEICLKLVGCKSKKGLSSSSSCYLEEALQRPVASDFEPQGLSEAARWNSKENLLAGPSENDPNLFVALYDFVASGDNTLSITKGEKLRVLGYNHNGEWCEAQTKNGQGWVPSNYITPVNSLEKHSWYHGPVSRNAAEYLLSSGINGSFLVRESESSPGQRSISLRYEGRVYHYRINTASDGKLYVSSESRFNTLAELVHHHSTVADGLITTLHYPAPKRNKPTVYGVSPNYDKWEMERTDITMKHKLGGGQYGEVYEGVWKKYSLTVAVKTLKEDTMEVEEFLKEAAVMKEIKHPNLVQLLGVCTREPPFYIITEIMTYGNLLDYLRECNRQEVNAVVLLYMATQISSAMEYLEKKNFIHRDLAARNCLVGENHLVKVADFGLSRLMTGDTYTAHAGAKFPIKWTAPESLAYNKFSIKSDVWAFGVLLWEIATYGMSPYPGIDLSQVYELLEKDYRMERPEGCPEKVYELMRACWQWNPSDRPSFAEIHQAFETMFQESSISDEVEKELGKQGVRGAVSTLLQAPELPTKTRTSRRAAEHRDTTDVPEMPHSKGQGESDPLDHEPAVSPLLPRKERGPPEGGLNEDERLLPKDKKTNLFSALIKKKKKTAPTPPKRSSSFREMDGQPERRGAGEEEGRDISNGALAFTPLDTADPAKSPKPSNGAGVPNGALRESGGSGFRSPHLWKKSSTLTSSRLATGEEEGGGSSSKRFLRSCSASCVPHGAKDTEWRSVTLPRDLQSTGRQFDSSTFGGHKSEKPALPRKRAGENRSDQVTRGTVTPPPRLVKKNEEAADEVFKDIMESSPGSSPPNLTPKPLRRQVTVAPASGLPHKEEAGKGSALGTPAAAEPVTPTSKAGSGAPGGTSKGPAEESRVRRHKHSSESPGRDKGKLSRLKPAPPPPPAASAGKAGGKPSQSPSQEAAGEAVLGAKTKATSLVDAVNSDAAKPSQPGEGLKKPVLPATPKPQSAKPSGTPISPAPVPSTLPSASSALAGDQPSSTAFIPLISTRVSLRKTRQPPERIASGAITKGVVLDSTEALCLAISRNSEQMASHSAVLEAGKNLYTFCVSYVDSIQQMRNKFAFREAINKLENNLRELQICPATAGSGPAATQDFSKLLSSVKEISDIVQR

[7] = molecular target: T5, BRSK1 (Homo sapiens, UniProt Q8TDC3)
T5 sequence (Q8TDC3 1-778): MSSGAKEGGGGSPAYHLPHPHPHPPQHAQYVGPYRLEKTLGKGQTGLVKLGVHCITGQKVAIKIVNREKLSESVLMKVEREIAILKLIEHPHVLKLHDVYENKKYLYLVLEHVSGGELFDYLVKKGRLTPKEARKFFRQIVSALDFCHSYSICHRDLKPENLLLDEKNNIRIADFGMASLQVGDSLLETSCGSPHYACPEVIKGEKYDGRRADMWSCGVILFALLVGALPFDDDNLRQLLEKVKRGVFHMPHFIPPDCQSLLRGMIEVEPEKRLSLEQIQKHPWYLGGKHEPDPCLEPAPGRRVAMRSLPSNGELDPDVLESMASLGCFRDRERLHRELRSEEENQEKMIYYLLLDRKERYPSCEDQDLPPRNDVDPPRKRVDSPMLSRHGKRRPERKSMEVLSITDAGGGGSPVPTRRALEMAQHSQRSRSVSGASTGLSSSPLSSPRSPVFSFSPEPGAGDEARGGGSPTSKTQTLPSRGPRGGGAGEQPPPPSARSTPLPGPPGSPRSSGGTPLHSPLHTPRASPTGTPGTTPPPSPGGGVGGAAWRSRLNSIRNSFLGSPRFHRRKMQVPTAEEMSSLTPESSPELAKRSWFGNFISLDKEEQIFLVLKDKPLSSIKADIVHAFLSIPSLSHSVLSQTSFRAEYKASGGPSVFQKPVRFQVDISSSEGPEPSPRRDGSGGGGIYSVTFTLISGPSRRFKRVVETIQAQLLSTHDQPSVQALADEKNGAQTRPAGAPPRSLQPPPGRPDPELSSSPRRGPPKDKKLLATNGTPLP

[8] = read-out: Percent control / Tirabrutinib
[9] = read-out: Percent control / Ibrutinib
[10] = read-out: Percent control / Zanubrutinib
[11] = read-out: Percent control / Acalabrutinib

CC#CC(=O)N1CC[C@@H](n2c(=O)n(-c3ccc(Oc4ccccc4)cc3)c3c(N)ncnc32)C1 [Tirabrutinib]
remaining binding at 0.3 µM [1, 8]: 41%
remaining binding at 0.3 µM [2, 8]: 90%
remaining binding at 0.3 µM [3, 8]: 63%
remaining binding at 0.3 µM [4, 8]: 99%
remaining binding at 0.3 µM [5, 8]: 69%
remaining binding at 0.3 µM [6, 8]: 77%

C=CC(=O)N1CCC[C@@H](n2nc(-c3ccc(Oc4ccccc4)cc3)c3c(N)ncnc32)C1 [Ibrutinib]
remaining binding at 0.3 µM [7, 9]: 72%
remaining binding at 0.3 µM [1, 9]: 0.6%
remaining binding at 0.3 µM [2, 9]: 84%
remaining binding at 0.3 µM [3, 9]: 79%
remaining binding at 0.3 µM [4, 9]: 89%
remaining binding at 0.3 µM [5, 9]: 10%
remaining binding at 0.3 µM [6, 9]: 42%

C=CC(=O)N1CCC([C@@H]2CCNc3c(C(N)=O)c(-c4ccc(Oc5ccccc5)cc4)nn32)CC1 [Zanubrutinib]
remaining binding at 0.3 µM [7, 10]: 92%
remaining binding at 0.3 µM [2, 10]: 85%
remaining binding at 0.3 µM [3, 10]: 93%

CC#CC(=O)N1CCC[C@H]1c1nc(-c2ccc(C(=O)Nc3ccccn3)cc2)c2c(N)nccn12 [Acalabrutinib]
remaining binding at 0.3 µM [7, 11]: 92%
remaining binding at 0.3 µM [1, 11]: 71%
remaining binding at 0.3 µM [2, 11]: 94%
remaining binding at 0.3 µM [3, 11]: 85%
remaining binding at 0.3 µM [4, 11]: 82%
remaining binding at 0.3 µM [5, 11]: 91%
remaining binding at 0.3 µM [6, 11]: 81%

Source: paper PMC10004634 (PLOS ONE, 2023)
